The results in this text go back to patent US20240116985A1, “STAPLED PEPTIDES AND METHODS THEREOF” (priority 2020, published 2024).

SMILES strings stand for the structures.

The target in data set [1] is T1, full-length B-Catenin (Uniprot ID P35222) (Homo sapiens, UniProt P35222).
T1 construct: 65 nM full-length B-Catenin (Uniprot ID P35222)
T1 sequence (P35222 1-781): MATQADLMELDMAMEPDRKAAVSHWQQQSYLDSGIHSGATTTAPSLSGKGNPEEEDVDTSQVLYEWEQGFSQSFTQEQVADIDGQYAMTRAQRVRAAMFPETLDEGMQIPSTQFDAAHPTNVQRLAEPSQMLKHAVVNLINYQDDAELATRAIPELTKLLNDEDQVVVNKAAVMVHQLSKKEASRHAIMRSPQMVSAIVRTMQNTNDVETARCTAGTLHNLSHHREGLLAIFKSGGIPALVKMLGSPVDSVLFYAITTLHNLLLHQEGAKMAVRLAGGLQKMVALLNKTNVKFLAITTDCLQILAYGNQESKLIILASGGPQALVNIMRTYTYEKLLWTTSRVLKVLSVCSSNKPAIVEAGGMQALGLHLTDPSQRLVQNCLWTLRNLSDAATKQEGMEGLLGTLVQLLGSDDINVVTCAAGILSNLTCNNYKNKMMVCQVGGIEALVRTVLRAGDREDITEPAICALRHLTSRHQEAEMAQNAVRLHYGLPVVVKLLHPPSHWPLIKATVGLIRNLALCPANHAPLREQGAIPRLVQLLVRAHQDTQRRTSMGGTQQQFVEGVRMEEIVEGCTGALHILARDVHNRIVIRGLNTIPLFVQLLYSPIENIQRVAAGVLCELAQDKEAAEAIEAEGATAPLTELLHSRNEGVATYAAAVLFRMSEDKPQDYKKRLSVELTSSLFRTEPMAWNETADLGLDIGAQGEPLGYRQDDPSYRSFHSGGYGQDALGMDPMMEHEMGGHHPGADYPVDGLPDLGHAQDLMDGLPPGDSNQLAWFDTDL
As to the kind of experiment: Alphascreen binding assay (beta-catenin / biotin-TCF4 10-53). The method, boiled down: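 AlphaScreen (Ni-chelate beads) competition in 50 mM Tris pH 8.0, 250 mM NaCl with detergents and 0.1% BSA. Peptide titrated 10 uM–5 nM against 65 nM human β-catenin bound to 10 nM biotinylated TCF4 10-53, 15 min then 60 min with beads, both at 20 °C; 1:1 Hill-slope fit.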
A general note: Bead proximity is the source of the signal in Alpha formats.

The nature of a further data set: CHI Log D procedure. The data set is classed as physicochemical. The conditions noted are these: for CHI Log D: pH 7.4; for chromatographic logD: pH 7.4, CHI Log D.

Consider `CC(=O)N1CCC[C@]12CC=CCCCC1(CCCC=CCCCCCC[C@@](C)(C(=O)N[C@@H](Cc3ccccc3)C(=O)N[C@@H](Cc3c[nH]c4ccccc34)C(=O)NC(C)(C)C(N)=O)NC(=O)[C@H](C(C)C)NC(=O)[C@H](Cc3ccccc3)NC(=O)[C@H](C)NC(=O)[C@H](C)NC(=O)[C@H](CCC(=O)O)NC(=O)[C@H](CC(=O)O)NC1=O)NC(=O)[C@H](C)NC(=O)[C@H](CC(=O)O)NC2=O` (stereo partly drawn) [I-133, Ac-PL3-Asp-Ala-B5-Asp-Glu-Ala-Ala-Phe-Val-S8-Phe-Trp-Aib-NH2], for which a half-maximal response in data set [1] (EC50) required 0.495 µM. Moreover, the “CHI Log D” value in “CHI Log D procedure” was 2.383.
On the same counts, the results for `CC(=O)N1CCC[C@]12CC=CCCCC1(CCCC=CCCCCCC[C@@](C)(C(=O)N[C@@H](Cc3ccccc3)C(=O)N[C@@](C)(Cc3c[nH]c4ccccc34)C(=O)N[C@@H](CCC(N)=O)C(N)=O)NC(=O)[C@H](C(C)C)NC(=O)[C@H](Cc3ccccc3)NC(=O)[C@H](C)NC(=O)[C@H](C)NC(=O)[C@H](CCC(=O)O)NC(=O)[C@H](CC(=O)O)NC1=O)NC(=O)[C@H](C)NC(=O)[C@H](CC(=O)O)NC2=O` (stereo partly drawn) [I-136, Ac-PL3-Asp-Ala-B5-Asp-Glu-Ala-Ala-Phe-Val-S8-Phe-aMeW-Gln-NH2] are 3.3 µM and 2.136.
As for `CC(=O)N1CCC[C@]12CC=CCCCC1(CCCC=CCCCCCC[C@@](C)(C(=O)N[C@@H](Cc3ccccc3)C(=O)N[C@@H](Cc3ccc4ccccc4c3)C(N)=O)NC(=O)[C@H](C(C)C)NC(=O)[C@H](Cc3ccccc3)NC(=O)[C@H](C)NC(=O)[C@H](C)NC(=O)[C@H](CCC(=O)O)NC(=O)[C@H](CC(=O)O)NC1=O)NC(=O)[C@H](C)NC(=O)[C@H](CC(=O)O)NC2=O` (stereo partly drawn) [I-141, Ac-PL3-Asp-Ala-B5-Asp-Glu-Ala-Ala-Phe-Val-S8-Phe-2NapA-NH2], a half-maximal effect in data set [1] (EC50) was put at 5.45 µM. In addition, in “CHI Log D procedure”, the chromatographic logD (commonly lipophilicity estimated from chromatographic retention) is 2.43.
Turning to `CC(=O)N1CCC[C@]12CC=CCCCC1(CCCC=CCCCCCC[C@@](C)(C(=O)N[C@@H](Cc3ccccc3)C(=O)N[C@@H](Cc3c[nH]c4ccc(F)cc34)C(=O)N[C@@H](CCC(N)=O)C(N)=O)NC(=O)[C@H](C(C)C)NC(=O)[C@H](Cc3ccccc3)NC(=O)[C@H](C)NC(=O)[C@H](C)NC(=O)[C@H](CCC(=O)O)NC(=O)[C@H](CC(=O)O)NC1=O)NC(=O)[C@H](C)NC(=O)[C@H](CC(=O)O)NC2=O` (stereo partly drawn) [I-146, Ac-PL3-Asp-Ala-B5-Asp-Glu-Ala-Ala-Phe-Val-S8-Phe-5FW-Gln-NH2], the concentration for a half-maximal effect (EC50) (as a rule, the concentration needed to bring the measured effect to its halfway point) in data set [1] was found to be 1.22 µM. This compound showed a chromatographic logD in the data set “CHI Log D procedure” of 2.
With `CC[C@H](C)[C@H](NC(=O)[C@H](CC(=O)O)NC(C)=O)C(=O)N[C@]1(C)CCN(C)C(=O)OCC=CCCCCC[C@@](C)(C(=O)N[C@@H](Cc2ccccc2)C(=O)N[C@@H](Cc2c[nH]c3ccccc23)C(=O)N[C@@H](Cc2c[nH]cn2)C(N)=O)NC(=O)[C@H](CCC(N)=O)NC(=O)[C@H](Cc2ccccc2)NC(=O)[C@H](C)NC(=O)[C@H](C)NC(=O)[C@H](CC(=O)O)NC(=O)[C@H](CC(=O)O)NC1=O` [I-150, Ac-Asp-Ile-RdN-Asp-Asp-Ala-Ala-Phe-Gln-S7-Phe-Trp-His-NH2], in data set [1], the concentration giving a half-maximal response (EC50) amounted to 1.94 µM. For the same compound, the “CHI Log D” value in the data set “CHI Log D procedure” was 1.297.
In data set [1], `CC[C@H](C)[C@H](NC(=O)[C@H](CC(=O)O)NC(C)=O)C(=O)N[C@]1(C)CCN(C)C(=O)OCC=CCCCCC[C@@](C)(C(=O)N[C@@H](Cc2ccccc2)C(=O)N[C@@H](Cc2c[nH]c3ccccc23)C(N)=O)NC(=O)[C@H](CCC(N)=O)NC(=O)[C@H](Cc2ccccc2)NC(=O)[C@H](C)NC(=O)[C@H](C)NC(=O)[C@H](CC(=O)O)NC(=O)[C@H](CC(=O)O)NC1=O` [I-151, Ac-Asp-Ile-RdN-Asp-Asp-Ala-Ala-Phe-Gln-S7-Phe-Trp-NH2] displayed a concentration for a half-maximal effect (EC50) of 5.5 µM. The compound also gave a chromatographic logD in the data set “CHI Log D procedure” of 1.35.
With `CC[C@H](C)[C@H](NC(=O)[C@H](CC(=O)O)NC(=O)[C@H](C)NC(C)=O)C(=O)N[C@]1(C)CCN(C)C(=O)OCC=CCCCCC[C@@](C)(C(=O)N[C@@H](Cc2ccccc2)C(=O)N[C@@H](Cc2c[nH]c3ccccc23)C(=O)N[C@@H](C)C(N)=O)NC(=O)[C@H](C)NC(=O)[C@H](Cc2ccccc2)NC(=O)[C@H](C)NC(=O)[C@H](C)NC(=O)[C@H](CCC(=O)O)NC(=O)[C@H](CC(=O)O)NC1=O` [I-155, Ac-Ala-Asp-Ile-RdN-Asp-Glu-Ala-Ala-Phe-Ala-S7-Phe-Trp-Ala-NH2], in data set [1], the EC50 came to 0.734 µM. In addition, in the data set “CHI Log D procedure”, the “CHI Log D” value is 1.415.
As to `CC(=O)N[C@@H](C)C(=O)N[C@@H](CC(=O)O)C(=O)N[C@@H](C)C(=O)N[C@]1(C)CCN(C)C(=O)OCC=CCCCCC[C@@](C)(C(=O)N[C@@H](Cc2ccccc2)C(=O)N[C@@H](Cc2c[nH]c3ccccc23)C(=O)N[C@@H](Cc2c[nH]cn2)C(N)=O)NC(=O)[C@H](CCC(N)=O)NC(=O)[C@H](Cc2ccccc2)NC(=O)[C@H](C)NC(=O)[C@H](C)NC(=O)[C@H](CCC(=O)O)NC(=O)[C@H](CC(=O)O)NC1=O` [I-156, Ac-Ala-Asp-Ala-RdN-Asp-Glu-Ala-Ala-Phe-Gln-S7-Phe-Trp-His-NH2], it took 4.18 µM to reach a half-maximal effect in data set [1] (EC50). The compound also registered a chromatographic logD in the data set “CHI Log D procedure” of 1.07.
For `CC(=O)NC(C)(C)C(=O)N[C@@H](CC(=O)O)C(=O)N[C@@H](C)C(=O)N[C@]1(C)CCCCCCC=CCOC(=O)N2CC[C@@](C(=O)N[C@@H](Cc3ccccc3)C(=O)N[C@@H](Cc3c[nH]c4ccccc34)C(=O)N[C@@H](CCC(N)=O)C(N)=O)(C2)NC(=O)[C@H](C(C)C)NC(=O)[C@H](Cc2ccccc2)NC(=O)[C@H](C)NC(=O)[C@H](C)NC(=O)[C@H](CCC(=O)O)NC(=O)[C@H](CC(=O)O)NC1=O` [I-158, Ac-Aib-Asp-Ala-R8-Asp-Glu-Ala-Ala-Phe-Val-PyrS-Phe-Trp-Gln-NH2], in data set [1], the half-maximal effective concentration (EC50) was found to be 2.17 µM. Further, in the data set “CHI Log D procedure”, the “CHI Log D” value was determined as 1.23.
Regarding `CC(=O)NC(C)(C)C(=O)N[C@@H](CC(=O)O)C(=O)N[C@@H](C)C(=O)N[C@]1(C)CCCCCCC=CCOC(=O)N2CC[C@@](C(=O)N[C@@H](Cc3ccccc3)C(=O)N[C@@H](Cc3c[nH]c4ccccc34)C(=O)NC(C)(C)C(N)=O)(C2)NC(=O)[C@H](C(C)C)NC(=O)[C@H](Cc2ccccc2)NC(=O)[C@H](C)NC(=O)[C@H](C)NC(=O)[C@H](CCC(=O)O)NC(=O)[C@H](CC(=O)O)NC1=O` [I-160, Ac-Aib-Asp-Ala-R8-Asp-Glu-Ala-Ala-Phe-Val-PyrS-Phe-Trp-Aib-NH2], in data set [1], a half-maximal response (EC50) required 3.24 µM. Further, in the data set “CHI Log D procedure”, the “CHI Log D” value came out at 1.49.
`COc1ccc2[nH]cc(C[C@H](NC(=O)[C@H](Cc3ccccc3)NC(=O)[C@]3(C)CCCCCCC=CCCCC4(CCCC=CC[C@]5(CCCN5C(C)=O)C(=O)N[C@@H](CC(=O)O)C(=O)N[C@@H](C)C(=O)N4)C(=O)N[C@@H](CC(=O)O)C(=O)N[C@@H](CCC(=O)O)C(=O)N[C@@H](C)C(=O)N[C@@H](C)C(=O)N[C@@H](Cc4ccccc4)C(=O)N[C@@H](C(C)C)C(=O)N3)C(=O)N[C@@H](CCC(N)=O)C(N)=O)c2c1` (stereo partly drawn) [I-165, Ac-PL3-Asp-Ala-B5-Asp-Glu-Ala-Ala-Phe-Val-S8-Phe-5MeOW-Gln-NH2] returned an EC50 in data set [1] of 1.23 µM. The chromatographic logD in “CHI Log D procedure” was determined as 2.
As to `CC(=O)N1CCC[C@]12CC=CCCCC1(CCCC=CCCCCCC[C@@](C)(C(=O)N[C@@H](Cc3ccccc3)C(=O)N[C@@H](CC3CNc4ccccc43)C(=O)N[C@@H](CCC(N)=O)C(N)=O)NC(=O)[C@H](C(C)C)NC(=O)[C@H](Cc3ccccc3)NC(=O)[C@H](C)NC(=O)[C@H](C)NC(=O)[C@H](CCC(=O)O)NC(=O)[C@H](CC(=O)O)NC1=O)NC(=O)[C@H](C)NC(=O)[C@H](CC(=O)O)NC2=O` (stereo partly drawn) [I-167, Ac-PL3-Asp-Ala-B5-Asp-Glu-Ala-Ala-Phe-Val-S8-Phe-H2Trp-Gln-NH2], it took 6.2 µM to reach a half-maximal effect in data set [1] (EC50). Also, in “CHI Log D procedure”, the “CHI Log D” value is 1.927.
Take `CC(=O)N1CCC[C@]12CC=CCCCC1(CCCC=CCCCCCC[C@@](C)(C(=O)N[C@@H](Cc3ccccc3)C(=O)N[C@@H](CC3CNc4ccccc43)C(=O)N[C@@H](CCC(N)=O)C(N)=O)NC(=O)[C@H](C(C)C)NC(=O)[C@H](Cc3ccccc3)NC(=O)[C@H](C)NC(=O)[C@H](C)NC(=O)[C@H](CCC(=O)O)NC(=O)[C@H](CC(=O)O)NC1=O)NC(=O)[C@H](C)NC(=O)[C@H](CC(=O)O)NC2=O` (stereo partly drawn) [I-168, Ac-PL3-Asp-Ala-B5-Asp-Glu-Ala-Ala-Phe-Val-S8-Phe-H2Trp-Gln-NH2]: in data set [1], the concentration for a half-maximal effect (EC50) stood at 5.64 µM. Further, the “CHI Log D” value in “CHI Log D procedure” was determined as 1.942.
In data set [1], `CC(=O)N1CCC[C@]12CC=CCCCC1(CCCC=CCCCCCC[C@@](C)(C(=O)N[C@@H](Cc3ccccc3)C(=O)N[C@@H](Cc3c[nH]c4ccc(C(F)(F)F)cc34)C(=O)N[C@@H](CCC(N)=O)C(N)=O)NC(=O)[C@H](C(C)C)NC(=O)[C@H](Cc3ccccc3)NC(=O)[C@H](C)NC(=O)[C@H](C)NC(=O)[C@H](CCC(=O)O)NC(=O)[C@H](CC(=O)O)NC1=O)NC(=O)[C@H](C)NC(=O)[C@H](CC(=O)O)NC2=O` (stereo partly drawn) [I-169, Ac-PL3-Asp-Ala-B5-Asp-Glu-Ala-Ala-Phe-Val-S8-Phe-5CF3W-Gln-NH2] gave a half-maximal effective concentration (EC50) of 9.21 µM. This compound also yielded a chromatographic logD in “CHI Log D procedure” of 2.18.
